Results taken from patent US20050112573A1, “Method of detecting toxic substance” (priority 2001, published 2005).

Tested on: yeast genes (level of expressed mRNA)
Assay: DNA chip analysis of expressed mRNA of yeast genes after 2 h culture with a toxic chemical substance
Assay type: cell-based, Saccharomyces cerevisiae S288C
Description: Yeast (Saccharomyces cerevtisiae S288C (α SUC2mal mel gap2 CUP1)) were cultured at 25° C. on YPD medium (yeast extract 1%, polypepton 2%, glucose 2%). One of toxic chemical substances was added to the cell at logarithmic growth phase, and the cell was further cultured for two hours. Cell was cultured without any chemical substance in the same condition, and was used as control. Concentrations of the chemical substances were defined to inhibit the growth of the yeast but not lead to death.
After the completion of cultivation, the culture was centrifuged to collect the cells. To the cells, sodium acetate buffer (50 mM sodium acetate, 10 mM EDTA, 1% SDS) was added, and the mixture was shaken at 65° C. for five minutes, followed by returning to room temperature, and obtaining the supernatant, which procedure was repeated two times. To the supernatant, ½ amount of a solution of phenol/chloroform was added, and the mixture was centrifuged to give a supernatant, which was added with an equal amount of chloroform, and the mixture was centrifuged to give a supernatant. To the supernatant, an equal amount of isopropanol containing 0.3 M sodium acetate was added, and the mixture was allowed to stand at room temperature for 30 minutes, after which the mixture was centrifuged to give a sediment of the whole RNAs. Seventy % ethanol was added to the sediment, and the mixture was again centrifuged to give a sediment, which was then dried and dissolved in water. mRNA was isolated from the whole RNAs as followings. In view of the fact that a poly A chain is attached to the 3′ terminus of mRNA, a polynucleotide having a poly T structure which was immobilized on the surface of latex beads was used to trap the mRNA, and then the mRNA was washed and eluted with spine column (Oligotex-dT30<Super>mRNA Purification Kit, Takara). Reverse transcription of the mRNA was conducted with a reverse transcriptase (Super Script II Reverse Transcriptase; catalogue No. 18064-014, GibcoBRL) using fluorescence-labeled nucleotides to give cDNAs that were introduced with Cy3-dUTP or Cy5-dUTP during the reverse transcription.
The labeled cDNAs were dissolved in TE buffer (10 mM Tris-HCl/1 mM EDTA, pH8.0), and the solution was dropped on the DNA chip containing the whole genes of yeast (DNA Chip Research Inc. Japan) so that the cDNAs were hybridized on the DNA chip at 65° C. for over 12 hours. The fluoresces intensity of the DNA chip was read with a scanner, and the ratio relative to the fluorescence intensity resulting from the absence of chemical substance was estimated as the following, which is shown in Tables 1 to 9: [formula]
In the Tables, “Intensity” indicated in the rightmost column is a value of the level of expressed mRNA of each gene in control cells as divided by the average level of the expressions of the whole genes.

C[S+](C)[O-] [(15), dimethylsulfoxide]
The level of expressed mRNA in the presence of chemical substance/absence: YGR293C (gene YGR293C): 0.7 | The level of expressed mRNA in the presence of chemical substance/absence: YHL006C (gene YHL006C): 0.6 | The level of expressed mRNA in the presence of chemical substance/absence: YHL021C (gene YHL021C): 1.2 | The level of expressed mRNA in the presence of chemical substance/absence: YHL037C (gene YHL037C): 0.8 | level of expressed mRNA in the presence of chemical substance/in its absence (gene YHR037W): 1.1 | The level of expressed mRNA in the presence of chemical substance/absence: YHR083W (gene YHR083W): 1.3 | level of expressed mRNA in the presence of chemical substance/in its absence (gene YHR092C): 0.2 | The level of expressed mRNA in the presence of chemical substance/absence: YHR095W (gene YHR095W): 0.8 | The level of expressed mRNA in the presence of chemical substance/absence: YHR105W (gene YHR105W): 0.9 | The level of expressed mRNA in the presence of chemical substance/absence: YHR134W (gene YHR134W): 1.0 | level of expressed mRNA in the presence of chemical substance/in its absence (gene YHR137W): 2.8 | The level of expressed mRNA in the presence of chemical substance/absence: YHR180W (gene YHR180W): 0.8 | The level of expressed mRNA in the presence of chemical substance/absence: YHR181W (gene YHR181W): 1.4 | level of expressed mRNA in the presence of chemical substance/in its absence (gene YHR190W): 1.3 | level of expressed mRNA in the presence of chemical substance/in its absence (gene YIL033C): 1.0 | The level of expressed mRNA in the presence of chemical substance/absence: YIL108W (gene YIL108W): 1.8 | The level of expressed mRNA in the presence of chemical substance/absence: YIL127C (gene YIL127C): 0.7 | level of expressed mRNA in the presence of chemical substance/in its absence (gene YIL154C): 4.3 | The level of expressed mRNA in the presence of chemical substance/absence: YIL165C (gene YIL165C): 0.8 | level of expressed mRNA in the presence of chemical substance/in its absence (gene YIL167W): 0.6 | level of expressed mRNA in the presence of chemical substance/in its absence (gene YIR035C): 1.4 | The level of expressed mRNA in the presence of chemical substance/absence: YJL017W (gene YJL017W): 1.1 | The level of expressed mRNA in the presence of chemical substance/absence: YJL032W (gene YJL032W): 1.0 | The level of expressed mRNA in the presence of chemical substance/absence: YJL037W (gene YJL037W): 1.6 | The level of expressed mRNA in the presence of chemical substance/absence: YJL049W (gene YJL049W): 0.8 | level of expressed mRNA in the presence of chemical substance/in its absence (gene YJL088W): 5.7 | The level of expressed mRNA in the presence of chemical substance/absence: YJL097W (gene YJL097W): 1.1 | level of expressed mRNA in the presence of chemical substance/in its absence (gene YJL132W): 1.1 | level of expressed mRNA in the presence of chemical substance/in its absence (gene YJL196C): 0.6 | The level of expressed mRNA in the presence of chemical substance/absence: YJR030C (gene YJR030C): 0.8 | The level of expressed mRNA in the presence of chemical substance/absence: YJR044C (gene YJR044C): 1.6 | level of expressed mRNA in the presence of chemical substance/in its absence (gene YJR142W): 0.6 | level of expressed mRNA in the presence of chemical substance/in its absence (gene YJR148W): 3.2 | level of expressed mRNA in the presence of chemical substance/in its absence (gene YJR159W): 2.3 | The level of expressed mRNA in the presence of chemical substance/absence: YKL051W (gene YKL051W): 1.5 | The level of expressed mRNA in the presence of chemical substance/absence: YKL059C (gene YKL059C): 1.1 | level of expressed mRNA in the presence of chemical substance/in its absence (gene YKL067W): 1.1 | The level of expressed mRNA in the presence of chemical substance/absence: YKL090W (gene YKL090W): 0.8 | The level of expressed mRNA in the presence of chemical substance/absence: YKL094W (gene YKL094W): 1.0 | The level of expressed mRNA in the presence of chemical substance/absence: YKL097C (gene YKL097C): 0.8 | The level of expressed mRNA in the presence of chemical substance/absence: YKL100C (gene YKL100C): 1.7 | level of expressed mRNA in the presence of chemical substance/in its absence (gene YKR039W): 1.7 | The level of expressed mRNA in the presence of chemical substance/absence: YKR040C (gene YKR040C): 1.1 | The level of expressed mRNA in the presence of chemical substance/absence: YLR097C (gene YLR097C): 0.9 | level of expressed mRNA in the presence of chemical substance/in its absence (gene YLR142W): 1.6 | level of expressed mRNA in the presence of chemical substance/in its absence (gene YLR180W): 2.5 | The level of expressed mRNA in the presence of chemical substance/absence: YLR226W (gene YLR226W): 1.3 | level of expressed mRNA in the presence of chemical substance/in its absence (gene YLR273C): 2.6 | level of expressed mRNA in the presence of chemical substance/in its absence (gene YLR300W): 2.7 | level of expressed mRNA in the presence of chemical substance/in its absence (gene YLR307W): 3.9 | The level of expressed mRNA in the presence of chemical substance/absence: YLR338W (gene YLR338W): 1.5 | The level of expressed mRNA in the presence of chemical substance/absence: YLR339C (gene YLR339C): 1.0 | The level of expressed mRNA in the presence of chemical substance/absence: YLR392C (gene YLR392C): 0.5 | The level of expressed mRNA in the presence of chemical substance/absence: YLR415C (gene YLR415C): 1.0 | The level of expressed mRNA in the presence of chemical substance/absence: YLR427W (gene YLR427W): 0.8 | The level of expressed mRNA in the presence of chemical substance/absence: YML013W (gene YML013W): 2.2 | The level of expressed mRNA in the presence of chemical substance/absence: YML029W (gene YML029W): 0.8
